In general, IC50 refers to the concentration that gives 50% inhibition. A higher IC50 goes with lower potency.

Our source for the IC50 values is BindingDB's records for doi:10.7270/Q2668BKB (The Scripps Research Institute Molecular Screening Center, 2009).

Each structure is given as a SMILES string.

The experiment concerns the target T1, 2'-phosphotransferase (Candida albicans (strain SC5314 / ATCC MYA-2876), UniProt Q5A7N4).
T1 sequence (Q5A7N4 whole entry): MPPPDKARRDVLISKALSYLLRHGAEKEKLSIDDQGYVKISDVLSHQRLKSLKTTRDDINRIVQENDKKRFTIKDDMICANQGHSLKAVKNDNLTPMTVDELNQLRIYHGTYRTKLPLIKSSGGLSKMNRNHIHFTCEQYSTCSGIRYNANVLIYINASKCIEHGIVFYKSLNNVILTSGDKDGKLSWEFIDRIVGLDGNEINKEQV
The experiment can be described thus: TPT1 tRNA phosphotransferase inhibitors, dose response, biochemical, fluorescence polarization (AID 2160).

`Cc1ccc2nc(N=NCc3ccc([N+](=O)[O-])o3)nc(-c3ccccc3)c2c1` registered an IC50 above 55.7 µM.
